Legend:
[1] = tested on: southern root knot nematodes; assay: Test of effect on southern root knot nematodes; assay type: in vivo, southern potato root knot nematodes; settings: wettable powder diluted to 300 ppm, 0.1 ml plus 0.9 ml solution containing 500 nematodes; 25° C., after 2 days
Experimental: (1) Test of effect on southern root knot nematodes The respective wettable powders of Compounds (1) shown in Table 2 prepared as in Example 3 were diluted to 300 ppm with water, 0.1 ml of which is taken into the test tubes, and 0.9 ml of a solution containing 500 southern potato root knot nematodes was added thereto, respectively. Subsequently, these test tubes were left to stand in a thermostat chamber at 25° C., and after 2 days, nematodecidal rate was determined by observing with microscope.

[2] = tested on: diamondback moth; assay: Test of effect on diamondback moth; assay type: in vivo, diamondback moths (3rd instar larvae); settings: wettable powder diluted to 300 ppm; cabbage leaves dipped for 30 seconds; 25° C., after 2 days
Experimental: (3) Test of effect on diamondback moth The respective wettable powders of Compounds (1) shown in Table 2 prepared as in Example 3 were diluted to 300 ppm with water containing a surfactant (0.01%), and in these respective chemical solutions, cabbage leaves (5×5 cm) were dipped for 30 seconds, and each leaf was put into the respective plastic cups and air-dried. Subsequently, 10 diamondback moths (3rd instar larvae) were placed in the respective cups, and put the lids on them and they were left to stand in a thermostat chamber at 25° C., and after 2 days, insecticidal rate was determined by counting living and dead insects in the respective cups.

[3] = tested on: brown rice planthopper; assay: Test of effect on brown rice planthopper; assay type: in vivo, brown rice planthoppers (4th instar larvae); settings: wettable powder diluted to 300 ppm; young seedlings of rice dipped for 30 seconds; 25° C., after 4 days
Experimental: (§1) (4) Test of effect on brown rice planthopper The respective wettable powders of Compounds (1) shown in Table 2 prepared as in Example 3 were diluted to 300 ppm with water containing a surfactant (0.01%), and in these respective chemical solutions, young seedlings of rice were dipped for 30 seconds, and after air-drying, each was put into the respective glass cylinders. Subsequently, 10 brown rice planthoppers (4th instar larvae) were placed in the respective glass cylinders, and porous stoppers were each placed on them and they were left to stand in a thermostat chamber at 25° C., and after 4 days, insecticidal rate was determined by counting living and dead insects in the respective cylinders.

[4] = tested on: green rice leafhopper; assay: Test of effect on green rice leafhopper; assay type: in vivo, green rice leafhoppers (4th instar larvae); settings: wettable powder diluted to 300 ppm; young seedlings of rice dipped for 30 seconds; 25° C., after 4 days
Experimental: as §1, with “(5)” for “(4)”, “green” for “brown”, “leafhopper” for “planthopper”, “leafhoppers” for “planthoppers”

[5] = tested on: tobacco cutworm; assay: Test of effect on tobacco cutworm; assay type: in vivo, tobacco cutworm (2nd instar larvae); settings: wettable powder diluted to 500 ppm; soybean leaves dipped for 30 seconds; 25° C., after 2 days
Experimental: (6) Test of effect on tobacco cutworm The respective wettable powders of Compounds (1) shown in Table 2 prepared as in Example 3 were diluted to 500 ppm with water containing a surfactant (0.01%), and in these respective chemical solutions, leave of soybean were dipped for 30 seconds. After air-drying, each of the leave was put into the respective plastic cups, 10 tobacco cutworm (2nd instar larvae) were placed in the respective cups, and put the lids on them and they were left to stand in a thermostat chamber at 25° C. After 2 days, insecticidal rate was determined by counting living and dead insects in the respective cups.

Row | Compound | nematodecidal effect (nematodecidal rate) [1] [%] | insecticidal effect (insecticidal rate) [2] [%] | insecticidal effect (insecticidal rate) [3] [%] | insecticidal effect (insecticidal rate) [4] [%] | insecticidal effect (insecticidal rate) [5] [%] | melting point [°C]
1 | CC(F)c1ncnc(NCCc2ccc(OC(F)(F)F)cc2)c1I (centres unmarked) [1-(23), 6-(1-fluoroethyl)-5-iodo-4-[2-(4-trifluoromethoxyphenyl)ethylamino]pyrimidine] | 100 | 100 | 100 | 100 | 100 | 
2 | CC(Cl)c1ncnc(NCCc2ccccc2)c1I (centres unmarked) [Compound 1-(2), 6-(1-chloroethyl)-5-iodo-4-(2-phenylethylamino)pyrimidine] |  |  |  |  |  | 101 to 102
3 | CC(F)c1ncnc(NCCc2ccccc2)c1I (centres unmarked) [Compound 1-(1), 6-(1-fluoroethyl)-5-iodo-4-(2-phenylethylamino)pyrimidine] | 100 | 100 | 100 | 100 |  | 
4 | CC(F)c1ncnc(NCCc2ccc(F)cc2)c1I (centres unmarked) [Compound 1-(5), 6-(1-fluoroethyl)-5-iodo-4-[2-(4-fluorophenyl)ethylamino]pyrimidine] | 100 | 100 | 100 | 100 | 100 | 
5 | CC(=O)OC(C)c1ncnc(NCCc2ccccc2)c1I (stereo not drawn) [Compound 1-(3), 6-(l-acetoxyethyl)-5-iodo-4-(2-phenylethylamino)pyrimidine] |  | 100 |  |  |  | 
6 | CC(=O)OC(C)c1ncnc(NCCc2ccc(OC(F)(F)F)cc2)c1I (centres unmarked) [1-(21), 6-(1-acetoxyethyl)-5-iodo-4-[2-(4-trifluoromethoxyphenyl)ethylamino]pyrimidine] |  |  |  |  |  | 77 to 79

From patent publication US6521627B1, “5-Iodo-4-phenethylaminopyrimidine derivative, intermediate thereof, processes for producing the same and agricultural and horticultural pesticides” (UBE Industries, Ltd., priority 1998, dated 2003)
